# Measured values: PMC6934184, “Selective DNA-PKcs inhibition extends the therapeutic index of localized radiotherapy and chemotherapy” (The Journal of Clinical Investigation, 2019)
# Molecular target: T1, CSNK2A1 (CK2 alpha 1) (Homo sapiens, UniProt P68400)
# T1 construct: purchased Thermo Fisher Scientific (Life Technologies) SelectScreen
# Assay: SelectScreen Z'LYTE
# Assay type: biochemical
# Procedure, shortened: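 SelectScreen broad panel; activity (Z'LYTE, Adapta) plus binding formats. ATP: Km app for CSF1R Z'LYTE; 10 for CAMK1 Adapta. Readout = % per kinase.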
# T1 sequence (P68400 whole entry): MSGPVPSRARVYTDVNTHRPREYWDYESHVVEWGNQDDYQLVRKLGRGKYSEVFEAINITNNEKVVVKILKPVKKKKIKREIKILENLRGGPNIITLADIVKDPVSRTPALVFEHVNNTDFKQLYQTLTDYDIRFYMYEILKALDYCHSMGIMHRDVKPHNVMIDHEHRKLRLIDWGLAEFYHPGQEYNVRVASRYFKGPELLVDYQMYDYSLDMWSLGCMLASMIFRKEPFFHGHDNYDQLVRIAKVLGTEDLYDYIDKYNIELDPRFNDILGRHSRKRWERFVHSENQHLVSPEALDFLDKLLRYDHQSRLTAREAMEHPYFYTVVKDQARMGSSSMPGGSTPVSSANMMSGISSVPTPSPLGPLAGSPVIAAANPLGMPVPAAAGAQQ
compound,measurement,value
CN(C(=O)CN1CCOCC1)c1ccc2sc3c(-c4cccc5c(=O)cc(N6CC7CCC(C6)O7)oc45)cccc3c2c1 [NU5455],inhibition at 1 µM,7.1%
